Reference: patent US12686657B2, “Anti-inflammatory carboxamide derivatives” (BIOMEDCODE HELLAS SA, priority 2021, dated 2026)
Where two headings read alike, the source gives them in different places.

Experiments:
Format in all cases: cell-based, mice
[1] = tested on: SFs and PMCs; experiment: Compound cytotoxicity, Crystal Violet assay
Method: The toxicity of the test compounds was assessed at several concentrations using the Crystal Violet assay on both SFs and PMCs. Adherent viable cells were Methanol fixed and stained with Crystal Violet. Optical density was quantified at […], as described in Feoktistova et al., 2016.

[2] = tested on: LPS activated thioglyclolate peritoneal macrophages; experiment: Cytokines and chemokines secreted from LPS activated thioglycolate peritoneal macrophages (Legendplex panels); conditions: for CCL5 level, percentage of untreated control cells / IL6 level, percentage of untreated control cells / MCP1 level, percentage of untreated control cells / MDC level, percentage of untreated control cells / MIP1α level, percentage of untreated control cells / MIP1β level, percentage of untreated control cells / GMCSF level, percentage of untreated control cells / IL1α level, percentage of untreated control cells / IL12p70 level, percentage of untreated control cells / IL27 level, percentage of untreated control cells: 10 μM compound, 48 h; for IC50: Mus musculus, Peritoneal macrophage, read-out: IL6 IC50
Method: Activated peritoneal macrophages were isolated from the peritoneal lavage of C57BL/6 wild type mice, 5 days after the peritoneal administration of 3% Thioglucolate, as described in Jiménez-García et al., 2015. The isolated cells were seeded at a concentration of 5×10^5 cells/well in a 48 well plate. 4 h after isolation, cells were starved O/N in Optimem (Gibco, 11058, 100 U/ml P/S). The cells were further activated with 100 ng/ml Lipopolysaccharide (LPS, Sigma-Aldrich, L2630) along with the test compounds at a dose of 10 μM. 48 h later the supernatants of the cell cultures were collected and analyzed using the Mouse 13 plex Legendplex Chemokine (Biolegend, 740007) and Cytokine (Bioloegend, 740446) panels according the manufacturer's instructions.
The same protocol was repeated reducing the concentration of LPS to 10 ng/ml in order to determine the efficiency of the tested compounds.
In order to assess the anti-inflammatory activity of the compounds of the invention, their ability to reduce the levels of secreted cytokines and chemokines from activated macrophages, which are key inflammatory cells of the immune system, was measured. Test compounds 51, 52 and 53, E and F were tested at a dose of 10 μM on LPS induced thioglycolate derived peritoneal macrophages. Chemokine and cytokine analyses were performed using the Mouse pro-inflammatory panels from Legendplex and their levels are presented as a percentage of the levels detected in the untreated control cells (Tables 6a and 6b). Data presented for compounds 51, 52, 53 refer to LPS stimulation of 100 ng/ml, while compounds E and F were tested upon LPS stimulation of 10 ng/ml.

[3] = tested on: hTNFtg SFs; experiment: Wound healing assay on activated SFs; conditions: compound 10 μM, 24 h
Method: Activated SFs were isolated from hTNFtg mice as described above and they were seeded in 24 well plates at a concentration of 2×10^5 cells/well. The next day a straight-line wound was created on the formed cell monolayer using the tip of a 200 μl pipette. Images of the wounds were captured by microscope at a magnification of 4× at two time points. Time point 0 (i.e. the time of the creation of the wound) as well as 24 h later (t=24 h). The area of the wound was measured at each time point using the software ImageJ.
The percent closure of the wound was calculated using the following formula: [(wound area at t0−wound area at t24)/wound area at t0]*100
The assay for each compound was repeated four times.
The inventors wanted to further explore the potential of the test compounds to reduce the activated phenotype of the arthritogenic SFs and studied their effect on a wound healing assay. In this assay a wound is formed on a monolayer of SFs and the rate of closure of this wound is indicative of the proliferation and migration capacity of the SFs, i.e. the slower the closure of the wound, the less proliferative and migratory are the SFs.
The potential ability of the compounds 53, E and F to inhibit the proliferation and migration of activated SFs, was assessed at a concentration of 10 μM and the wound healing assay was performed using hTNFtg SFs, as these cells show increased proliferation and migration potential (Vasilopoulos et al., 2007). The data shown in Table 10 where the percentages of wound closure area are presented in hTNFtg untreated as well as compound treated cells.

[4] = tested on: hTNFtg SFs; experiment: CCL5 and CCL20 ELISA on hTNFtg synovial fibroblasts; conditions: Mus musculus, Fibroblast; for activity at 10 µM: compound 10 μM; for activity at 10 µM / activity at 25 µM / activity at 50 µM: 48 h; for activity at 25 µM: compound 25 μM; for activity at 50 µM: compound 50 μM
Method: Primary SFs were derived from a) human TNF transgenic (hTNFTg) mice (Keffer et al., 1991) as well as from b) CBA/C57BL6 wild type mice.
hTNFtg mice overexpress human TNF, resulting in the spontaneous development of arthritis.
SFs were isolated as previously described by Armaka et al., 2009, from the ankle joints of hTNFtg or CBA/C57BL6 wild type (wt) littermates. Briefly, ankle joints were digested with Collagenase IV (Sigma Aldrich, C5138) for 45 minutes at a 37° C. shaking waterbath and after 5 days in culture at 37° C. and 5% CO2, a depletion of CD45+ lineage cells was performed using a Biotin anti-mouse CD45 Antibody (Biolegend, 103104) and Dynabeads™ Biotin Binder (ThermoFisher 11047), according to the manufacturer's protocol. After 10 days in culture, SFs were seeded overnight (O/N) at a concentration of 2×10^4 cells/well in a 96 well plate in 1×DMEM, supplemented with 100 U/ml Penicillin Streptomycin (P/S) and 10% Fetal Bovine Serum (FBS). The next day the cells were synchronized by starvation that included their O/N plating in low serum medium (0.5% FBS). Following the O/N starvation, the hTNFg and the WT SFs were treated with different concentrations of the experimental compounds. The SFs were at the same time activated with 10 ng/ml hTNF (Peprotech, 300-01A). 48 h following the treatment the cell culture supernatants were collected and analyzed by ELISA (R&S Systems, Duoset, DY478 and DY760) according to the manufacturer's protocol, for the detection of CCL5/Rantes and CCL20/Mip3, two known inflammatory chemokines. The IC50 values were determined as the concentration of the compounds required to reduce the levels of secreted CCL5 and CCL20 by 50%.
Table 7 summarizes the reduction of CCL5 and CCL20 levels achieved with the test compounds of the invention. Data are presented as percentages of the chemokine levels detected in treated cells compared to 100% levels of the chemokines detected in the untreated cells.
Table 8 summarizes the values of IC50 and toxicity for the test compounds of the invention. Dose response curves regarding the WT SFs were produced with 10 ng/ml hTNF stimulation for all compounds, with the exception of the compounds E and F, where WT cells were induced using hTNF at 1 ng/ml: […]

[5] = read-out: CCL5 hTNFtg, percentage of level in untreated cells
[6] = read-out: CCL20 hTNFtg, percentage of level in untreated cells
[7] = read-out: IC50 (μM) CCL5 hTNFtg
[8] = read-out: IC50 (μM) CCL20 hTNFtg

COc1cc(N)c(Cl)cc1C(=O)NCC1(Nc2cccc(OC(F)(F)F)c2)CCCCCC1 [F, 4-amino-5-chloro-2-methoxy-N-((1-((3-(trifluoromethoxy)phenyl)amino)cycloheptyl)methyl)benzamide]
Cell Toxicity [1]: >25 µM
CCL5 level, percentage of untreated control cells ([2]; LPS 10 ng/ml): 2%
IL6 level, percentage of untreated control cells ([2]; LPS 10 ng/ml): 5.3%
MCP1 level, percentage of untreated control cells ([2]; LPS 10 ng/ml): 9%
MDC level, percentage of untreated control cells ([2]; LPS 10 ng/ml): 47%
MIP1α level, percentage of untreated control cells ([2]; LPS 10 ng/ml): 45%
MIP1β level, percentage of untreated control cells ([2]; LPS 10 ng/ml): 26%
IC50 ([2]; LPS 10 ng/ml): 2670 nM
% of wound closure (mean ± SD) [3]: 63 ± 11.8%
activity at 10 µM [4, 5]: 0%
activity at 10 µM [4, 6]: 24%
activity at 25 µM [4, 5]: 0%
activity at 25 µM [4, 6]: 29%
IC50 [4, 7]: < 0.01 µM
IC50 [4, 8]: < 0.01 µM

COc1cc(N)c(Cl)cc1C(=O)NCC1(Nc2ccc(F)cc2Cl)CCCCCC1 [E, 4-amino-5-chloro-N-((1-((2-chloro-4-fluorophenyl)amino)cycloheptyl)methyl)-2-methoxybenzamide]
Cell Toxicity [1]: >150 µM
CCL5 level, percentage of untreated control cells ([2]; LPS 10 ng/ml): 8%
IL6 level, percentage of untreated control cells ([2]; LPS 10 ng/ml): 8.8%
MCP1 level, percentage of untreated control cells ([2]; LPS 10 ng/ml): 9.3%
MDC level, percentage of untreated control cells ([2]; LPS 10 ng/ml): 54%
MIP1α level, percentage of untreated control cells ([2]; LPS 10 ng/ml): 50%
MIP1β level, percentage of untreated control cells ([2]; LPS 10 ng/ml): 41%
IC50 ([2]; LPS 10 ng/ml): 570 nM
% of wound closure (mean ± SD) [3]: 73 ± 31.5%
activity at 10 µM [4, 5]: 8.2%
activity at 10 µM [4, 6]: 14%
activity at 25 µM [4, 5]: 5%
activity at 25 µM [4, 6]: 20%
IC50 [4, 7]: 1.69 µM
IC50 [4, 8]: 4.07 µM

COc1cc(N)c(Cl)cc1C(=O)NCC1(c2ccc(Cl)cc2)CCCCCC1 [Compound 52, 4-amino-5-chloro-N-((1-(4-chlorophenyl)cycloheptyl)methyl)-2-methoxybenzamide]
Cell Toxicity [1]: >200 µM
GMCSF level, percentage of untreated control cells ([2]; LPS 100 ng/ml): 36%
IL1α level, percentage of untreated control cells ([2]; LPS 100 ng/ml): 9%
IL6 level, percentage of untreated control cells ([2]; LPS 100 ng/ml): 7%
IL12p70 level, percentage of untreated control cells ([2]; LPS 100 ng/ml): 23%
IL27 level, percentage of untreated control cells ([2]; LPS 100 ng/ml): 19%
MCP1 level, percentage of untreated control cells ([2]; LPS 100 ng/ml): 28%
MIP1β level, percentage of untreated control cells ([2]; LPS 100 ng/ml): 51%
activity at 10 µM [4, 5]: 50%
activity at 10 µM [4, 6]: 67%
activity at 50 µM [4, 5]: 29%
activity at 50 µM [4, 6]: 48%
IC50 [4, 7]: 4.2 µM
IC50 [4, 8]: 15 µM

COc1cc(N)c(Cl)cc1C(=O)NCC1(c2ccc(Cl)cc2)CCCCC1 [Compound 51, 4-amino-5-chloro-N-((1-(4-chlorophenyl)cyclohexyl)methyl)-2-methoxybenzamide]
Cell Toxicity [1]: >100 µM
GMCSF level, percentage of untreated control cells ([2]; LPS 100 ng/ml): 80%
IL1α level, percentage of untreated control cells ([2]; LPS 100 ng/ml): 36%
IL6 level, percentage of untreated control cells ([2]; LPS 100 ng/ml): 44%
IL12p70 level, percentage of untreated control cells ([2]; LPS 100 ng/ml): 54%
IL27 level, percentage of untreated control cells ([2]; LPS 100 ng/ml): 77%
MCP1 level, percentage of untreated control cells ([2]; LPS 100 ng/ml): 27%
MIP1β level, percentage of untreated control cells ([2]; LPS 100 ng/ml): 90%
activity at 10 µM [4, 5]: 46%
activity at 10 µM [4, 6]: 16%
activity at 50 µM [4, 5]: 47%
activity at 50 µM [4, 6]: 13%
IC50 [4, 7]: 2.6 µM
IC50 [4, 8]: 1 µM

COc1cc(N)c(Cl)cc1C(=O)NCC1(Nc2ccc(Cl)cc2)CCCCCC1 [Compound 53, 4-amino-5-chloro-N-((1-((4-chlorophenyl)amino)cycloheptyl)methyl)-2-methoxybenzamide]
Cell Toxicity [1]: >100 µM
CCL5 level, percentage of untreated control cells ([2]; LPS 100 ng/ml): 22%
GMCSF level, percentage of untreated control cells ([2]; LPS 100 ng/ml): 38%
IL1α level, percentage of untreated control cells ([2]; LPS 100 ng/ml): 30%
IL6 level, percentage of untreated control cells ([2]; LPS 100 ng/ml): 15%
IL12p70 level, percentage of untreated control cells ([2]; LPS 100 ng/ml): 18%
IL27 level, percentage of untreated control cells ([2]; LPS 100 ng/ml): 75%
MCP1 level, percentage of untreated control cells ([2]; LPS 100 ng/ml): 75%
MDC level, percentage of untreated control cells ([2]; LPS 100 ng/ml): 52%
MIP1α level, percentage of untreated control cells ([2]; LPS 100 ng/ml): 60%
MIP1β level, percentage of untreated control cells ([2]; LPS 100 ng/ml): 67%
% of wound closure (mean ± SD) [3]: 67.7 ± 16.2%
activity at 10 µM [4, 5]: 40%
activity at 10 µM [4, 6]: 22%
activity at 50 µM [4, 5]: 34%
activity at 50 µM [4, 6]: 22%
IC50 [4, 7]: 2.3 µM
IC50 [4, 8]: 3.2 µM
